In the supplement of paper PMC10307832:

How the values were obtained:
Test in all cases: relative viability (nuclei count vs DMSO), 5 days (fraction); higher = more cells survive
[1] = compound: C[As](C)SC[C@H](NC(=O)CC[C@H](N)C(=O)O)C(=O)NCC(=O)O [Darinaparsin] + Nc1nc2[nH]cc(CCc3ccc(C(=O)N[C@@H](CCC(=O)O)C(=O)O)cc3)c2c(=O)[nH]1 [Pemetrexed] (partner 0.2 µM)
Summary of the method: (§1)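 Dosing by pin tool came one day after lung cancer cell lines were seeded in 1536-well plates, using either one drug or a fixed anchor-drug dose plus five library-drug doses (not always all listed) in √10 steps. After 5 days, nuclei were counted on 4× images. Relative viability is treated-well nuclei count divided by vehicle-well nuclei count, and values are medians of duplicate plates.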

Darinaparsin + Foretinib = compound: C[As](C)SC[C@H](NC(=O)CC[C@H](N)C(=O)O)C(=O)NCC(=O)O [Darinaparsin] + COc1cc2c(Oc3ccc(NC(=O)C4(C(=O)Nc5ccc(F)cc5)CC4)cc3F)ccnc2cc1OCCCN1CCOCC1 [Foretinib] (partner 0.25 µM)
Summary of the method: as §1

Darinaparsin + Dasatinib = compound: C[As](C)SC[C@H](NC(=O)CC[C@H](N)C(=O)O)C(=O)NCC(=O)O [Darinaparsin] + Cc1nc(Nc2ncc(C(=O)Nc3c(C)cccc3Cl)s2)cc(N2CCN(CCO)CC2)n1 [Dasatinib] (partner 0.075 µM)
Summary of the method: as §1

[2] = compound: C[As](C)SC[C@H](NC(=O)CC[C@H](N)C(=O)O)C(=O)NCC(=O)O [Darinaparsin] + CC1(C)CCC(c2ccc(Cl)cc2)=C(CN2CCN(c3ccc(C(=O)NS(=O)(=O)c4ccc(N[C@H](CCN5CCOCC5)CSc5ccccc5)c(S(=O)(=O)C(F)(F)F)c4)cc3)CC2)C1 [Navitoclax] (partner 0.5 µM)
Summary of the method: as §1

## NCI-H322M
[1]; first compound 0.08 µM
  relative viability: 0.695
[1]; first compound 0.8 µM
  relative viability: 0.582
[1]; first compound 2.53 µM
  relative viability: 0.589
[1]; first compound 8 µM
  relative viability: 0.618
Darinaparsin + Foretinib; first compound 0.08 µM
  relative viability: 1.04
Darinaparsin + Foretinib; first compound 0.8 µM
  relative viability: 1.04
Darinaparsin + Foretinib; first compound 2.53 µM
  relative viability: 0.826
Darinaparsin + Foretinib; first compound 8 µM
  relative viability: 1.02
Darinaparsin + Dasatinib; first compound 0.08 µM
  relative viability: 0.269
Darinaparsin + Dasatinib; first compound 0.8 µM
  relative viability: 0.233
Darinaparsin + Dasatinib; first compound 2.53 µM
  relative viability: 0.251
Darinaparsin + Dasatinib; first compound 8 µM
  relative viability: 0.257
[2]; first compound 0.08 µM
  relative viability: 1.25
[2]; first compound 0.8 µM
  relative viability: 1.17
[2]; first compound 2.53 µM
  relative viability: 1.13
[2]; first compound 8 µM
  relative viability: 1.33

## LCLC-103H
[1]; first compound 0.08 µM
  relative viability: 0.466
[1]; first compound 0.8 µM
  relative viability: 0.422
[1]; first compound 2.53 µM
  relative viability: 0.448
[1]; first compound 8 µM
  relative viability: 0.422
Darinaparsin + Foretinib; first compound 0.08 µM
  relative viability: 0.858
Darinaparsin + Foretinib; first compound 0.8 µM
  relative viability: 0.745
Darinaparsin + Foretinib; first compound 2.53 µM
  relative viability: 0.626
Darinaparsin + Foretinib; first compound 8 µM
  relative viability: 0.858
Darinaparsin + Dasatinib; first compound 0.08 µM
  relative viability: 0.577
Darinaparsin + Dasatinib; first compound 0.8 µM
  relative viability: 0.449
Darinaparsin + Dasatinib; first compound 2.53 µM
  relative viability: 0.409
Darinaparsin + Dasatinib; first compound 8 µM
  relative viability: 0.533

## SK-MES-1
[1]; first compound 0.08 µM
  relative viability: 1.17
[1]; first compound 0.8 µM
  relative viability: 0.924
[1]; first compound 2.53 µM
  relative viability: 0.924
[1]; first compound 8 µM
  relative viability: 1.12
Darinaparsin + Foretinib; first compound 0.08 µM
  relative viability: 1.05
Darinaparsin + Foretinib; first compound 0.8 µM
  relative viability: 0.808
Darinaparsin + Foretinib; first compound 2.53 µM
  relative viability: 0.595
Darinaparsin + Foretinib; first compound 8 µM
  relative viability: 1.05
Darinaparsin + Dasatinib; first compound 0.08 µM
  relative viability: 0.284
Darinaparsin + Dasatinib; first compound 0.8 µM
  relative viability: 0.258
Darinaparsin + Dasatinib; first compound 2.53 µM
  relative viability: 0.344
Darinaparsin + Dasatinib; first compound 8 µM
  relative viability: 0.345
[2]; first compound 0.08 µM
  relative viability: 1.33
[2]; first compound 0.8 µM
  relative viability: 1.18
[2]; first compound 2.53 µM
  relative viability: 1.17
[2]; first compound 8 µM
  relative viability: 1.54

## Calu-6
Darinaparsin + Foretinib; first compound 0.08 µM
  relative viability: 1.04
Darinaparsin + Foretinib; first compound 0.8 µM
  relative viability: 1.02
Darinaparsin + Foretinib; first compound 2.53 µM
  relative viability: 0.861
Darinaparsin + Foretinib; first compound 8 µM
  relative viability: 0.938
[2]; first compound 0.08 µM
  relative viability: 1.13
[2]; first compound 0.8 µM
  relative viability: 0.921
[2]; first compound 2.53 µM
  relative viability: 0.752
[2]; first compound 8 µM
  relative viability: 0.745

## NCI-H1563
[1]; first compound 0.08 µM
  relative viability: 0.761
[1]; first compound 0.8 µM
  relative viability: 0.765
[1]; first compound 2.53 µM
  relative viability: 0.669
[1]; first compound 8 µM
  relative viability: 0.866
Darinaparsin + Foretinib; first compound 0.08 µM
  relative viability: 1.02
Darinaparsin + Foretinib; first compound 0.8 µM
  relative viability: 0.901
Darinaparsin + Foretinib; first compound 2.53 µM
  relative viability: 0.826
Darinaparsin + Foretinib; first compound 8 µM
  relative viability: 0.999
Darinaparsin + Dasatinib; first compound 0.08 µM
  relative viability: 0.379
Darinaparsin + Dasatinib; first compound 0.8 µM
  relative viability: 0.442
Darinaparsin + Dasatinib; first compound 2.53 µM
  relative viability: 0.5
Darinaparsin + Dasatinib; first compound 8 µM
  relative viability: 0.479

## NCI-H1648
[1]; first compound 0.8 µM
  relative viability: 0.716
[1]; first compound 8 µM
  relative viability: 0.683

## NCI-H2342
[1]; first compound 0.08 µM
  relative viability: 0.785
[1]; first compound 0.8 µM
  relative viability: 0.782
[1]; first compound 2.53 µM
  relative viability: 0.743
[1]; first compound 8 µM
  relative viability: 0.841
Darinaparsin + Foretinib; first compound 0.08 µM
  relative viability: 0.959
Darinaparsin + Foretinib; first compound 0.8 µM
  relative viability: 1.04
Darinaparsin + Foretinib; first compound 2.53 µM
  relative viability: 1.03
Darinaparsin + Foretinib; first compound 8 µM
  relative viability: 1.17
Darinaparsin + Dasatinib; first compound 0.08 µM
  relative viability: 0.358
Darinaparsin + Dasatinib; first compound 0.8 µM
  relative viability: 0.302
Darinaparsin + Dasatinib; first compound 2.53 µM
  relative viability: 0.296
Darinaparsin + Dasatinib; first compound 8 µM
  relative viability: 0.312

## NCI-H522
[1]; first compound 0.08 µM
  relative viability: 0.916
[1]; first compound 0.8 µM
  relative viability: 1.04
[1]; first compound 2.53 µM
  relative viability: 1.01
[1]; first compound 8 µM
  relative viability: 1.14
Darinaparsin + Dasatinib; first compound 0.08 µM
  relative viability: 0.853
Darinaparsin + Dasatinib; first compound 0.8 µM
  relative viability: 0.902
Darinaparsin + Dasatinib; first compound 2.53 µM
  relative viability: 0.804
Darinaparsin + Dasatinib; first compound 8 µM
  relative viability: 0.918

## NCI-H1792
[1]; first compound 0.08 µM
  relative viability: 1.14
[1]; first compound 0.8 µM
  relative viability: 0.829
[1]; first compound 8 µM
  relative viability: 0.921
Darinaparsin + Dasatinib; first compound 0.08 µM
  relative viability: 1.28
Darinaparsin + Dasatinib; first compound 0.8 µM
  relative viability: 0.849
Darinaparsin + Dasatinib; first compound 2.53 µM
  relative viability: 0.804
Darinaparsin + Dasatinib; first compound 8 µM
  relative viability: 0.957
[2]; first compound 0.08 µM
  relative viability: 1.03
[2]; first compound 0.8 µM
  relative viability: 0.652
[2]; first compound 2.53 µM
  relative viability: 0.393
[2]; first compound 8 µM
  relative viability: 0.665

## A549
Darinaparsin + Foretinib; first compound 0.08 µM
  relative viability: 1.27
Darinaparsin + Foretinib; first compound 0.8 µM
  relative viability: 0.991
Darinaparsin + Foretinib; first compound 2.53 µM
  relative viability: 0.896
Darinaparsin + Foretinib; first compound 8 µM
  relative viability: 1.41
[2]; first compound 0.08 µM
  relative viability: 1.42
[2]; first compound 0.8 µM
  relative viability: 1.29
[2]; first compound 2.53 µM
  relative viability: 1.16
[2]; first compound 8 µM
  relative viability: 1.33

## NCI-H1703
Darinaparsin + Foretinib; first compound 0.08 µM
  relative viability: 0.377
Darinaparsin + Foretinib; first compound 0.8 µM
  relative viability: 0.328
Darinaparsin + Foretinib; first compound 8 µM
  relative viability: 0.307
[2]; first compound 0.08 µM
  relative viability: 1.63
[2]; first compound 0.8 µM
  relative viability: 1.27
[2]; first compound 2.53 µM
  relative viability: 1.32
[2]; first compound 8 µM
  relative viability: 0.926

## NCI-H1299
Darinaparsin + Foretinib; first compound 0.08 µM
  relative viability: 1.14
Darinaparsin + Foretinib; first compound 0.8 µM
  relative viability: 1.06
Darinaparsin + Foretinib; first compound 2.53 µM
  relative viability: 1.09
Darinaparsin + Foretinib; first compound 8 µM
  relative viability: 1.11
[2]; first compound 0.08 µM
  relative viability: 1.03
[2]; first compound 0.8 µM
  relative viability: 1.08
[2]; first compound 2.53 µM
  relative viability: 1.04
[2]; first compound 8 µM
  relative viability: 1.1

## NCI-H1623
Darinaparsin + Foretinib; first compound 0.08 µM
  relative viability: 0.902
Darinaparsin + Foretinib; first compound 0.8 µM
  relative viability: 0.832
Darinaparsin + Foretinib; first compound 2.53 µM
  relative viability: 0.871
Darinaparsin + Foretinib; first compound 8 µM
  relative viability: 0.868
Darinaparsin + Dasatinib; first compound 0.08 µM
  relative viability: 0.574
Darinaparsin + Dasatinib; first compound 0.8 µM
  relative viability: 0.548
Darinaparsin + Dasatinib; first compound 2.53 µM
  relative viability: 0.518
Darinaparsin + Dasatinib; first compound 8 µM
  relative viability: 0.553

## NCI-H727
Darinaparsin + Foretinib; first compound 0.08 µM
  relative viability: 0.917
Darinaparsin + Foretinib; first compound 0.8 µM
  relative viability: 0.863
Darinaparsin + Foretinib; first compound 2.53 µM
  relative viability: 1.11
Darinaparsin + Foretinib; first compound 8 µM
  relative viability: 1
Darinaparsin + Dasatinib; first compound 0.08 µM
  relative viability: 0.401
Darinaparsin + Dasatinib; first compound 0.8 µM
  relative viability: 0.356
Darinaparsin + Dasatinib; first compound 2.53 µM
  relative viability: 0.414
Darinaparsin + Dasatinib; first compound 8 µM
  relative viability: 0.416
[2]; first compound 0.08 µM
  relative viability: 0.405
[2]; first compound 0.8 µM
  relative viability: 0.447
[2]; first compound 2.53 µM
  relative viability: 0.472
[2]; first compound 8 µM
  relative viability: 0.393

## EBC-1
Darinaparsin + Foretinib; first compound 0.08 µM
  relative viability: 0.103
Darinaparsin + Foretinib; first compound 0.8 µM
  relative viability: 0.0925
Darinaparsin + Foretinib; first compound 2.53 µM
  relative viability: 0.123
Darinaparsin + Foretinib; first compound 8 µM
  relative viability: 0.0888
[2]; first compound 0.08 µM
  relative viability: 0.4
[2]; first compound 0.8 µM
  relative viability: 0.351
[2]; first compound 2.53 µM
  relative viability: 0.375
[2]; first compound 8 µM
  relative viability: 0.352

## SW 900
[1]; first compound 0.08 µM
  relative viability: 0.402
[1]; first compound 2.53 µM
  relative viability: 0.481
[1]; first compound 8 µM
  relative viability: 0.517
Darinaparsin + Foretinib; first compound 0.08 µM
  relative viability: 0.919
Darinaparsin + Foretinib; first compound 0.8 µM
  relative viability: 0.778
Darinaparsin + Foretinib; first compound 2.53 µM
  relative viability: 0.918
Darinaparsin + Foretinib; first compound 8 µM
  relative viability: 1.06
Darinaparsin + Dasatinib; first compound 0.08 µM
  relative viability: 0.512
Darinaparsin + Dasatinib; first compound 0.8 µM
  relative viability: 0.454
Darinaparsin + Dasatinib; first compound 2.53 µM
  relative viability: 0.654
Darinaparsin + Dasatinib; first compound 8 µM
  relative viability: 0.514
